The text below walks through data of patent US7214673B2, “Piperazine substituted aryl benzodiazepines and their use as dopamine receptor antagonists for the treatment of psychotic disorders” (Eli Lilly and Company, priority 2002, dated 2007).

The target of data set [1] is T1, Dopamine D2 receptor (Homo sapiens, UniProt P14416).
T1 construct: purchased Receptor Biology (now owned by NEN) RBHD2CM
The data set can be described thus: Dopamine D2 receptor binding assay ([125I]iodospiperone). Conditions: [125I]iodospiperone 0.1 nM, D2 receptor membranes, 2 hours at room temperature; read-out: Relative D2 Receptor Binding Affinity Ki. The protocol: Serotonin 5-HT6 and Dopamine D2 Binding Assay Protocol
The assay buffers used are 50 mM Tris-HCl pH 7.4, 120 mM NaCl, 5 mM KCl, 5 mM MgCl2, 1 mM EDTA for the Dopamine D2s receptor binding assay. […] The membranes used are from Receptor Biology (now owned by NEN), Cat #RBHD2CM for the D2 receptor.
Compounds are obtained as 10 mM stocks in 100% DMSO. They are diluted to 1 mM in 100% DMSO by adding 180 μL DMSO to 20 μL of stock in 96 well plates using a multidrop. […] This is done using a TECAN robot.
The radioligand is diluted in assay buffer to provide 0.1 nM for the D2 assay. Each vial of membranes is diluted up to 92 mL in assay buffer. The final assay volume is 250 μL consisting of 210 μl of diluted membranes, 20 μL of compound or 10% DMSO for total binding, and 20 μL of diluted radioligand. The compounds are transferred from drug dilution plates into coming 96 well assay plates using a 96 well Multimek pipettor. Radioligand and membranes are added to assay plates using multidrop pipettors. Non-specific binding is determined in wells containing a final concentration of 5 μM haloperidol. The final drug concentration range in half logs is from 10 μM down to 0.1 nM.
After addition of drug, membrane, and ligand, the plates are incubated for 2 hours at room temperature. During this time 96 well Millipore filter plates (MAFBNOB50) are soaked for a least 30 minutes with 200 μL per well of 0.5% polyethyleneimine.
The 0.5% PEI is removed from filterplate wells using a TiterTek MAP aspirator and 200 μL of the incubation mixture is transferred from the incubation plate to the filterplate after mixing. This transfer is done using the 96 tip Mutimek pipettor. After transfer to the filterplate filterplates are extracted and ished twice with 220 μL per well of cold buffer on the MAP aspirator. The peel away bottoms are removed from the filterplates and 60 μL per well of microscint 20 scintillation fluid is added per well using a multidrop. Plates are placed into suitable holders and are left at room temperature for 3 hours and are counted for ^3H in either a Wallac Microbeta counter or on a Packard Topcount.

T1 sequence (P14416 1-414 isoform P14416-2): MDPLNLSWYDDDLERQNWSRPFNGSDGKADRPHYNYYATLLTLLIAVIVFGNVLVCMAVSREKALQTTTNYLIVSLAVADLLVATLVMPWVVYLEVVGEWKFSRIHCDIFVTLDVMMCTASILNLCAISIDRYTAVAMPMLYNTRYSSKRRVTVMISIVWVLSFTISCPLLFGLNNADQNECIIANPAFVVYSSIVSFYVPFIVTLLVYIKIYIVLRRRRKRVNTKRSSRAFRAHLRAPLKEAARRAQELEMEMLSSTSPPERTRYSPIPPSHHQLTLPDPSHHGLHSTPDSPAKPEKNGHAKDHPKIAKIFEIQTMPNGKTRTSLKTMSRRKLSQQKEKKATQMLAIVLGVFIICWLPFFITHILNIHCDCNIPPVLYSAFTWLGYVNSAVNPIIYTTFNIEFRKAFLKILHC

For orientation: melting point means the temperature, or range, at which the solid turns liquid. What is called Ki is a dissociation constant, usually derived from enzyme kinetics or from competition with a known ligand. For `Cc1cccc(C[C@H]2CN(C3=Nc4ccccc4Nc4sc(C)cc43)CCN2C)c1` [Example 103], the melting point was in the range of 67 to 83 °C. Further, in data set [1], the Ki fell in the range of 10 to 100 nM.

Take `COc1ccccc1C[C@H]1CN(C2=Nc3ccccc3Nc3sc(C)cc32)CCN1C` [Example 109]: the melting point lay in the range of 81 to 93 °C. For the same compound, in data set [1], the Ki is < 10 nM.

In turn, `Cc1cc2c(s1)Nc1ccccc1N=C2N1CCN[C@@H](Cc2ccsc2)C1` [Example 212] returned a melting point of 82 to 94 °C. In addition, the Ki in data set [1] was < 10 nM.

`Cc1cc2c(s1)Nc1ccccc1N=C2N1CCN(C)[C@@H](Cc2ccsc2)C1` [Example 219] yielded a melting point of 58 to 72 °C. The Ki in data set [1] fell in the range of 10 to 100 nM.
